Experimental data reported in ChEMBL document CHEMBL1201862, “PubChem BioAssay data set” (2004).
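Each compound was tested at five concentrations against cells in 96-well plates for 48 hours. GI50: concentration for 50% inhibition of growth.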 Active and inactive are the calls of the source. No stated cut-off is given here; in the data, active = GI50 up to about 1.1 µM and inactive = higher.

How the values were obtained:
Experiment in all cases: growth of human tumour cells (NCI), 48 h
786-0 = system: 786-0
A498 = system: A498
A549 = system: A549
ACHN = system: ACHN
BT-549 = system: BT-549
CAKI-1 = system: CAKI-1
CCRF-CEM = system: CCRF-CEM
COLO 205 = system: COLO 205
DU-145 = system: DU-145
EKVX = system: EKVX
HCC 2998 = system: HCC 2998
HCT-116 = system: HCT-116
HCT-15 = system: HCT-15
HL-60 = system: HL-60
HOP-62 = system: HOP-62
HOP-92 = system: HOP-92
HT-29 = system: HT-29
Hs-578T = system: Hs-578T
IGROV-1 = system: IGROV-1
K562 = system: K562
KM12 = system: KM12
LOX IMVI = system: LOX IMVI
M14 = system: M14
MCF7 = system: MCF7
MDA-MB-231 = system: MDA-MB-231
MDA-MB-435 = system: MDA-MB-435
MDA-N = system: MDA-N
MOLT-4 = system: MOLT-4
NCI-H460 = system: NCI-H460
NCI/ADR-RES = system: NCI/ADR-RES
OVCAR-3 = system: OVCAR-3
OVCAR-4 = system: OVCAR-4
OVCAR-5 = system: OVCAR-5
OVCAR-8 = system: OVCAR-8
PC-3 = system: PC-3
RPMI-8226 = system: RPMI-8226
RXF 393 = system: RXF 393
SF-268 = system: SF-268
SF-295 = system: SF-295
SF-539 = system: SF-539
SK-MEL-28 = system: SK-MEL-28
SK-MEL-2 = system: SK-MEL-2
SK-MEL-5 = system: SK-MEL-5
SK-OV-3 = system: SK-OV-3
SN12C = system: SN12C
SNB-19 = system: SNB-19
SNB-75 = system: SNB-75
SR = system: SR
SW-620 = system: SW-620
T47D = system: T47D
TK-10 = system: TK-10
U-251 = system: U-251
UACC-257 = system: UACC-257
UACC-62 = system: UACC-62
UO-31 = system: UO-31
Malme-3M = system: Malme-3M
NCI-H23 = system: NCI-H23

Structure (SMILES): CSc1ccc(/C=C2\N=C(c3ccccc3)N(c3nc4c(Cl)cc(Cl)cc4s3)C2=O)cc1
- GI50 (786-0): 25.9 µM (inactive)
- GI50 (A498): 17 µM (inactive)
- GI50 (A549): 21.4 µM (inactive)
- GI50 (ACHN): 27 µM (inactive)
- GI50 (BT-549): 21.5 µM (inactive)
- GI50 (CAKI-1): 31 µM (inactive)
- GI50 (CCRF-CEM): 7.74 µM (inactive)
- GI50 (COLO 205): 33.4 µM (inactive)
- GI50 (DU-145): 46 µM (inactive)
- GI50 (EKVX): 13.6 µM (inactive)
- GI50 (HCC 2998): 29 µM (inactive)
- GI50 (HCT-116): 19.1 µM (inactive)
- GI50 (HCT-15): 28.5 µM
- GI50 (HL-60): 21.6 µM (inactive)
- GI50 (HOP-62): 18.1 µM (inactive)
- GI50 (HOP-92): 32.8 µM (inactive)
- GI50 (HT-29): 19.8 µM (inactive)
- GI50 (Hs-578T): 21.9 µM (inactive)
- GI50 (IGROV-1): 35.3 µM (inactive)
- GI50 (K562): 26.7 µM (inactive)
- GI50 (KM12): 23 µM (inactive)
- GI50 (LOX IMVI): 29.9 µM (inactive)
- GI50 (M14): 25.7 µM (inactive)
- GI50 (MCF7): 24.9 µM (inactive)
- GI50 (MDA-MB-231): 18.9 µM (inactive)
- GI50 (MDA-MB-435): 16.6 µM (inactive)
- GI50 (MDA-N): 17 µM (inactive)
- GI50 (MOLT-4): 18.6 µM (inactive)
- GI50 (NCI-H460): 25.6 µM (inactive)
- GI50 (NCI/ADR-RES): 25.2 µM (inactive)
- GI50 (OVCAR-3): 18.9 µM (inactive)
- GI50 (OVCAR-4): 21.2 µM (inactive)
- GI50 (OVCAR-5): 31.1 µM (inactive)
- GI50 (OVCAR-8): 38.5 µM (inactive)
- GI50 (PC-3): 20.4 µM (inactive)
- GI50 (RPMI-8226): 22.5 µM (inactive)
- GI50 (RXF 393): 41 µM (inactive)
- GI50 (SF-268): 28.2 µM (inactive)
- GI50 (SF-295): 24.3 µM (inactive)
- GI50 (SF-539): 34.5 µM (inactive)
- GI50 (SK-MEL-28): 31.1 µM (inactive)
- GI50 (SK-MEL-2): 20.2 µM (inactive)
- GI50 (SK-MEL-5): 16.2 µM (inactive)
- GI50 (SK-OV-3): 25.9 µM (inactive)
- GI50 (SN12C): 24.8 µM (inactive)
- GI50 (SNB-19): 28.9 µM (inactive)
- GI50 (SNB-75): 36.6 µM (inactive)
- GI50 (SR): 20.9 µM (inactive)
- GI50 (SW-620): 29.4 µM (inactive)
- GI50 (T47D): 38.5 µM (inactive)
- GI50 (TK-10): 39.2 µM (inactive)
- GI50 (U-251): 17.1 µM (inactive)
- GI50 (UACC-257): 25.2 µM (inactive)
- GI50 (UACC-62): 24.4 µM (inactive)
- GI50 (UO-31): 22.2 µM (inactive)

Structure (SMILES): O=C1/C(=C/c2ccccc2S)N=C(c2ccccc2)N1c1ccc2c(c1)Sc1cc(N3C(=O)/C(=C/c4ccccc4S)N=C3c3ccccc3)ccc1N2
- GI50 (786-0): 22.9 µM (inactive)
- GI50 (A498): 19.1 µM (inactive)
- GI50 (A549): 17.4 µM (inactive)
- GI50 (ACHN): 18.6 µM (inactive)
- GI50 (BT-549): 26.7 µM (inactive)
- GI50 (CAKI-1): 18.7 µM (inactive)
- GI50 (CCRF-CEM): 15.2 µM (inactive)
- GI50 (COLO 205): 31.4 µM (inactive)
- GI50 (DU-145): 19.2 µM (inactive)
- GI50 (EKVX): 20.7 µM (inactive)
- GI50 (HCC 2998): 20.5 µM (inactive)
- GI50 (HCT-116): 21.3 µM (inactive)
- GI50 (HCT-15): 31.6 µM
- GI50 (HOP-62): 25.6 µM (inactive)
- GI50 (HOP-92): 14.9 µM (inactive)
- GI50 (HT-29): 34.4 µM (inactive)
- GI50 (Hs-578T): 25.6 µM (inactive)
- GI50 (IGROV-1): 15.7 µM (inactive)
- GI50 (K562): 22 µM (inactive)
- GI50 (KM12): 34 µM (inactive)
- GI50 (LOX IMVI): 20.3 µM (inactive)
- GI50 (M14): 17.9 µM (inactive)
- GI50 (MCF7): 21 µM (inactive)
- GI50 (MDA-MB-231): 28.4 µM (inactive)
- GI50 (MDA-MB-435): 21.1 µM (inactive)
- GI50 (MDA-N): 23.8 µM (inactive)
- GI50 (MOLT-4): 19.6 µM (inactive)
- GI50 (NCI-H460): 23.7 µM (inactive)
- GI50 (NCI/ADR-RES): 35.5 µM (inactive)
- GI50 (OVCAR-3): 18.8 µM (inactive)
- GI50 (OVCAR-4): 32.6 µM (inactive)
- GI50 (OVCAR-5): 18.7 µM (inactive)
- GI50 (OVCAR-8): 19.4 µM (inactive)
- GI50 (PC-3): 21.4 µM (inactive)
- GI50 (RPMI-8226): 19 µM (inactive)
- GI50 (SF-268): 19.5 µM (inactive)
- GI50 (SF-295): 16.8 µM (inactive)
- GI50 (SF-539): 11.8 µM (inactive)
- GI50 (SK-MEL-28): 21.7 µM (inactive)
- GI50 (SK-MEL-2): 23.8 µM (inactive)
- GI50 (SK-MEL-5): 17 µM (inactive)
- GI50 (SK-OV-3): 17.8 µM (inactive)
- GI50 (SN12C): 19.2 µM (inactive)
- GI50 (SNB-19): 16.7 µM (inactive)
- GI50 (SNB-75): 15.8 µM (inactive)
- GI50 (SR): 15.7 µM (inactive)
- GI50 (SW-620): 19.8 µM (inactive)
- GI50 (T47D): 22.7 µM (inactive)
- GI50 (TK-10): 17.4 µM (inactive)
- GI50 (U-251): 19.7 µM (inactive)
- GI50 (UACC-257): 20.4 µM (inactive)
- GI50 (UACC-62): 20.1 µM (inactive)
- GI50 (UO-31): 15.8 µM (inactive)

Structure (SMILES): O=c1c(Cc2c(O)ccc3ccccc23)nnc2sc(-c3nn4c(=O)c(Cc5c(O)ccc6ccccc56)nnc4s3)nn12
- GI50 (786-0): 14.8 µM (inactive)
- GI50 (A498): 42.2 µM (inactive)
- GI50 (A549): > 100 µM (inactive)
- GI50 (ACHN): 57.4 µM (inactive)
- GI50 (BT-549): 25.4 µM (inactive)
- GI50 (CAKI-1): > 100 µM (inactive)
- GI50 (CCRF-CEM): 30.5 µM (inactive)
- GI50 (DU-145): > 100 µM (inactive)
- GI50 (EKVX): 29.2 µM (inactive)
- GI50 (HCC 2998): > 100 µM (inactive)
- GI50 (HCT-116): > 100 µM (inactive)
- GI50 (HCT-15): > 100 µM
- GI50 (HL-60): 30.8 µM (inactive)
- GI50 (HOP-62): 28.5 µM (inactive)
- GI50 (HOP-92): 38.1 µM (inactive)
- GI50 (HT-29): > 100 µM (inactive)
- GI50 (Hs-578T): 10.8 µM (inactive)
- GI50 (IGROV-1): > 100 µM (inactive)
- GI50 (K562): > 100 µM (inactive)
- GI50 (LOX IMVI): > 100 µM (inactive)
- GI50 (M14): > 100 µM (inactive)
- GI50 (MCF7): 18 µM (inactive)
- GI50 (MDA-MB-231): 32.6 µM (inactive)
- GI50 (MDA-MB-435): > 100 µM (inactive)
- GI50 (MDA-N): > 100 µM (inactive)
- GI50 (MOLT-4): > 10 µM (inactive)
- GI50 (Malme-3M): > 100 µM (inactive)
- GI50 (NCI-H23): 54.7 µM (inactive)
- GI50 (NCI/ADR-RES): > 100 µM (inactive)
- GI50 (OVCAR-3): > 100 µM (inactive)
- GI50 (OVCAR-4): > 100 µM (inactive)
- GI50 (OVCAR-5): > 100 µM (inactive)
- GI50 (OVCAR-8): > 100 µM (inactive)
- GI50 (PC-3): > 100 µM (inactive)
- GI50 (RPMI-8226): > 100 µM (inactive)
- GI50 (RXF 393): 22.9 µM (inactive)
- GI50 (SF-268): 8.63 µM (inactive)
- GI50 (SK-MEL-2): 13.4 µM (inactive)
- GI50 (SN12C): > 100 µM (inactive)
- GI50 (SNB-19): 38.5 µM (inactive)
- GI50 (SNB-75): 9.2 µM (inactive)
- GI50 (SR): > 100 µM (inactive)
- GI50 (SW-620): > 100 µM (inactive)
- GI50 (T47D): 37.2 µM (inactive)
- GI50 (TK-10): 37.3 µM (inactive)
- GI50 (U-251): 26.2 µM (inactive)
- GI50 (UACC-257): > 100 µM (inactive)
- GI50 (UACC-62): 29 µM (inactive)
- GI50 (UO-31): > 100 µM (inactive)
